{
  "source": "the NIST ThermoML archive (doi:10.1016/j.jct.2016.03.026)",
  "test": "xn = mol fraction of the nth substance listed",
  "conditions": "Fluid (supercritical or subcritical phases), Frequency=5 MHz, Pulse-echo method",
  "note": "Values joined by “and” are separate entries in the source; they are usually repeats but may differ in a detail not shown here. Identical values can stand only once. Numbers after ± are expanded uncertainties.",
  "data": [
    {"smiles": "O=C=O", "note": "[carbon dioxide] + CO", "values": [
      {"measurement": "speed of sound", "setting": "313.15 K, 90000 kPa, x1 = 0.97", "value": "980.1 ± 1.3", "unit": "m/s"},
      {"measurement": "speed of sound", "setting": "313.15 K, 100110 kPa, x1 = 0.97", "value": "1019.5 ± 1.3", "unit": "m/s"},
      {"measurement": "speed of sound", "setting": "313.15 K, 109900 kPa, x1 = 0.97", "value": "1055.1 ± 1.4", "unit": "m/s"},
      {"measurement": "speed of sound", "setting": "313.15 K, 120040 kPa, x1 = 0.97", "value": "1089.6 ± 1.4", "unit": "m/s"},
      {"measurement": "speed of sound", "setting": "313.15 K, 140110 kPa, x1 = 0.97", "value": "1152.5 ± 1.5", "unit": "m/s"},
      {"measurement": "speed of sound", "setting": "313.15 K, 159960 kPa, x1 = 0.97", "value": "1208.8 ± 1.5", "unit": "m/s"},
      {"measurement": "speed of sound", "setting": "313.15 K, 179840 kPa, x1 = 0.97", "value": "1260.7 ± 1.6", "unit": "m/s"},
      {"measurement": "speed of sound", "setting": "323.14 K, 24960 kPa, x1 = 0.925", "value": "536.3 ± 0.9 m/s and 537.4 ± 0.8 m/s"},
      {"measurement": "speed of sound", "setting": "323.14 K, 24980 kPa, x1 = 0.925", "value": "537.5 ± 0.8", "unit": "m/s"},
      {"measurement": "speed of sound", "setting": "323.14 K, 25000 kPa, x1 = 0.925", "value": "537.5 ± 0.8", "unit": "m/s"},
      {"measurement": "speed of sound", "setting": "323.14 K, 29980 kPa, x1 = 0.925", "value": "591.2 ± 0.9", "unit": "m/s"},
      {"measurement": "speed of sound", "setting": "323.14 K, 29990 kPa, x1 = 0.925", "value": "591.2 ± 0.9 m/s and 590.7 ± 0.9 m/s and 591.5 ± 0.9 m/s"},
      {"measurement": "speed of sound", "setting": "323.14 K, 34960 kPa, x1 = 0.925", "value": "636.5 ± 0.9 m/s and 637.2 ± 0.9 m/s"},
      {"measurement": "speed of sound", "setting": "323.14 K, 34980 kPa, x1 = 0.925", "value": "637.4 ± 0.9", "unit": "m/s"},
      {"measurement": "speed of sound", "setting": "323.14 K, 34990 kPa, x1 = 0.925", "value": "637.5 ± 0.9", "unit": "m/s"},
      {"measurement": "speed of sound", "setting": "323.14 K, 39980 kPa, x1 = 0.925", "value": "678 ± 0.9 m/s and 677.9 ± 0.9 m/s"},
      {"measurement": "speed of sound", "setting": "323.14 K, 39990 kPa, x1 = 0.925", "value": "678.6 ± 0.9", "unit": "m/s"},
      {"measurement": "speed of sound", "setting": "323.14 K, 40000 kPa, x1 = 0.925", "value": "678.2 ± 0.9", "unit": "m/s"},
      {"measurement": "speed of sound", "setting": "323.14 K, 44980 kPa, x1 = 0.925", "value": "714.6 ± 1 m/s and 714.8 ± 1 m/s"},
      {"measurement": "speed of sound", "setting": "323.14 K, 45000 kPa, x1 = 0.925", "value": "714.7 ± 1", "unit": "m/s"},
      {"measurement": "speed of sound", "setting": "323.14 K, 49960 kPa, x1 = 0.925", "value": "748 ± 1", "unit": "m/s"},
      {"measurement": "speed of sound", "setting": "323.14 K, 49980 kPa, x1 = 0.925", "value": "748.4 ± 1 m/s and 748.2 ± 1 m/s"},
      {"measurement": "speed of sound", "setting": "323.14 K, 50000 kPa, x1 = 0.925", "value": "748.4 ± 1", "unit": "m/s"},
      {"measurement": "speed of sound", "setting": "323.14 K, 54960 kPa, x1 = 0.925", "value": "779.2 ± 1", "unit": "m/s"},
      {"measurement": "speed of sound", "setting": "323.14 K, 54980 kPa, x1 = 0.925", "value": "779.1 ± 1", "unit": "m/s"},
      {"measurement": "speed of sound", "setting": "323.14 K, 55000 kPa, x1 = 0.925", "value": "779.3 ± 1", "unit": "m/s"},
      {"measurement": "speed of sound", "setting": "323.14 K, 55010 kPa, x1 = 0.925", "value": "779.4 ± 1", "unit": "m/s"},
      {"measurement": "speed of sound", "setting": "323.14 K, 59980 kPa, x1 = 0.925", "value": "807.9 ± 1.1 m/s and 808.1 ± 1.1 m/s"},
      {"measurement": "speed of sound", "setting": "323.14 K, 59990 kPa, x1 = 0.925", "value": "808.2 ± 1.1", "unit": "m/s"},
      {"measurement": "speed of sound", "setting": "323.14 K, 60030 kPa, x1 = 0.925", "value": "808.2 ± 1.1", "unit": "m/s"},
      {"measurement": "speed of sound", "setting": "323.14 K, 64970 kPa, x1 = 0.925", "value": "835.2 ± 1.1 m/s and 835.3 ± 1.1 m/s and 835.1 ± 1.1 m/s"},
      {"measurement": "speed of sound", "setting": "323.14 K, 64990 kPa, x1 = 0.925", "value": "835.4 ± 1.1", "unit": "m/s"},
      {"measurement": "speed of sound", "setting": "323.14 K, 69970 kPa, x1 = 0.925", "value": "860.9 ± 1.1 m/s and 860.8 ± 1.1 m/s"},
      {"measurement": "speed of sound", "setting": "323.14 K, 69980 kPa, x1 = 0.925", "value": "861 ± 1.1", "unit": "m/s"},
      {"measurement": "speed of sound", "setting": "323.14 K, 69990 kPa, x1 = 0.925", "value": "860.9 ± 1.1", "unit": "m/s"},
      {"measurement": "speed of sound", "setting": "323.14 K, 74950 kPa, x1 = 0.925", "value": "885 ± 1.2", "unit": "m/s"},
      {"measurement": "speed of sound", "setting": "323.14 K, 74990 kPa, x1 = 0.925", "value": "885.2 ± 1.2", "unit": "m/s"},
      {"measurement": "speed of sound", "setting": "323.14 K, 75000 kPa, x1 = 0.925", "value": "885.4 ± 1.2", "unit": "m/s"},
      {"measurement": "speed of sound", "setting": "323.14 K, 75060 kPa, x1 = 0.925", "value": "885.5 ± 1.2", "unit": "m/s"},
      {"measurement": "speed of sound", "setting": "323.14 K, 79970 kPa, x1 = 0.925", "value": "908.3 ± 1.2", "unit": "m/s"},
      {"measurement": "speed of sound", "setting": "323.14 K, 79990 kPa, x1 = 0.925", "value": "908.5 ± 1.2 m/s and 908.4 ± 1.2 m/s"},
      {"measurement": "speed of sound", "setting": "323.14 K, 80000 kPa, x1 = 0.925", "value": "908.4 ± 1.2", "unit": "m/s"},
      {"measurement": "speed of sound", "setting": "323.14 K, 89990 kPa, x1 = 0.925", "value": "951.7 ± 1.2", "unit": "m/s"},
      {"measurement": "speed of sound", "setting": "323.14 K, 90000 kPa, x1 = 0.925", "value": "951.8 ± 1.2 m/s and 952 ± 1.2 m/s"},
      {"measurement": "speed of sound", "setting": "323.14 K, 99950 kPa, x1 = 0.925", "value": "991.5 ± 1.3", "unit": "m/s"},
      {"measurement": "speed of sound", "setting": "323.14 K, 100000 kPa, x1 = 0.925", "value": "992.1 ± 1.3", "unit": "m/s"},
      {"measurement": "speed of sound", "setting": "323.14 K, 100010 kPa, x1 = 0.925", "value": "991.8 ± 1.3 m/s and 991.7 ± 1.3 m/s"},
      {"measurement": "speed of sound", "setting": "323.14 K, 109960 kPa, x1 = 0.925", "value": "1028.8 ± 1.3", "unit": "m/s"},
      {"measurement": "speed of sound", "setting": "323.14 K, 109980 kPa, x1 = 0.925", "value": "1029.1 ± 1.3 m/s and 1028.9 ± 1.3 m/s"},
      {"measurement": "speed of sound", "setting": "323.14 K, 109990 kPa, x1 = 0.925", "value": "1029 ± 1.3", "unit": "m/s"},
      {"measurement": "speed of sound", "setting": "323.14 K, 119970 kPa, x1 = 0.925", "value": "1063.9 ± 1.4 m/s and 1063.8 ± 1.4 m/s"},
      {"measurement": "speed of sound", "setting": "323.14 K, 119990 kPa, x1 = 0.925", "value": "1063.9 ± 1.4", "unit": "m/s"},
      {"measurement": "speed of sound", "setting": "323.14 K, 129960 kPa, x1 = 0.925", "value": "1096.8 ± 1.4", "unit": "m/s"},
      {"measurement": "speed of sound", "setting": "323.14 K, 129980 kPa, x1 = 0.925", "value": "1096.8 ± 1.4", "unit": "m/s"},
      {"measurement": "speed of sound", "setting": "323.14 K, 129990 kPa, x1 = 0.925", "value": "1096.8 ± 1.4", "unit": "m/s"},
      {"measurement": "speed of sound", "setting": "323.14 K, 130020 kPa, x1 = 0.925", "value": "1096.9 ± 1.4", "unit": "m/s"},
      {"measurement": "speed of sound", "setting": "323.14 K, 139960 kPa, x1 = 0.925", "value": "1128 ± 1.4", "unit": "m/s"},
      {"measurement": "speed of sound", "setting": "323.14 K, 139990 kPa, x1 = 0.925", "value": "1128 ± 1.4 m/s and 1128.1 ± 1.4 m/s"},
      {"measurement": "speed of sound", "setting": "323.14 K, 140000 kPa, x1 = 0.925", "value": "1128.1 ± 1.4", "unit": "m/s"},
      {"measurement": "speed of sound", "setting": "323.14 K, 149960 kPa, x1 = 0.925", "value": "1157.6 ± 1.5", "unit": "m/s"},
      {"measurement": "speed of sound", "setting": "323.14 K, 149980 kPa, x1 = 0.925", "value": "1157.7 ± 1.5", "unit": "m/s"}
    ]}
  ]
}
